# Measured values: patent US20100210654A1, “NOVEL P2Y12 RECEPTOR ANTAGONISTS” (RHEINISCHE FRIEDRICH-WILHELMS UNIVERSITÄT BONN, priority 2007, published 2010)
# Legend:
# [1] = target: T1, human platelet P2Y12 receptors (Homo sapiens, UniProt Q9H244); assay: Radioligand binding assay with [3H]PSB-0413 at human platelet membranes; settings: human platelet membranes, 5 nM [3H]PSB-0413, 1 h at rt; mean ± SEM; read-out: hP2Y12 Receptor Ki [μM ± SEM] vs. [3H]PSB-0413
# T1 construct: Membranes were prepared from human outdated platelets from the blood bank; from tissue; host or cells: human platelets (University of Bonn blood bank), membrane preparation
# Method: Membranes were prepared from human outdated platelets from the blood bank. Outdated human platelets were obtained from the University of Bonn blood bank 4-5 days after donation. Platelet rich plasma was washed by centrifugation (10 min at 1000 g) in a buffer consisting of 50 mM Tris-HCl, pH 7.4, 5 mM EDTA and 150 mM NaCl. The supernatant was centrifuged twice (48400 g for 60 min) and the resultant platelet pellet were resuspended in 5 mM Tris-HCl (pH 7.4) containing 5 mM EDTA. The platelets were homogenized by a homogenizer. The final suspension was stored frozen as multiple aliquots at −80° C. until needed. Protein concentrations were determined by the method of Lowry using a Sigma Chemie protein assay kit.
# (§1) Radioligand binding assays were performed using 5 nM [^3H]PSB-0413 and 100 μg of protein in Tris-HCl buffer 50 mM, pH 7.4, as previously described. (El-Tayeb, A., Griessmeier, K. J, Müller, C. E. Bioorg. Med. Chem. Lett. 2005, 15, 5450-52; Atzler, K. Doctoral Thesis, University of Bonn, 2006). Competition by 10 μM of test compound was initially determined. The mixture was incubated for 1 h at rt followed by filtration through GF/B filters. Nonspecific binding was determined with 1 mM ADP or 250 μM RB 2. […] At least three independent experiments were performed each in triplicate.
# (§2) The data were analyzed using GraphPad Prism 4.0 (GraphPad Software, Inc., San Diego, Calif.).
# hP2Y4 Receptor = hP2Y4 Receptor (Homo sapiens, UniProt P51582); assay: Inhibition of agonist-induced calcium mobilization, recombinant receptor in human astrocytoma cells; format: cell-based; settings: mean ± SEM
# Method: (§3) Inhibition of agonist-induced calcium mobilization was determined as previously described (Kaulich M. et al, Drug Dev. Res. 2003, 59, 72-81) using NG108-15 cells for the mouse P2Y2 receptor, or human recombinant P2Y receptors stably expressed in human astrocytoma cells (El-Tayeb, A. et al., J. Med. Chem. 2006, 49, 7076-87).
# as §2
# rP2Y6 Receptor = rP2Y6 Receptor (Rattus norvegicus, UniProt Q63371); assay: as above; format: cell-based; settings: mean ± SEM
# Method: as §3, §2
# P2Y12 [2] = target: T2, P2Y12 (Homo sapiens, UniProt Q9H244); assay: GTP shift experiments (radioligand binding in presence and absence of GTP); set-up: Membranes were prepared from human outdated platelets from the blood bank; from tissue; host or cells: human platelets (University of Bonn blood bank), membrane preparation; settings: presence and absence of GTP (100 μM); no shift = antagonist rather than agonist
# Method: as §1
# Target sequence in this assay (Q9H244 whole entry): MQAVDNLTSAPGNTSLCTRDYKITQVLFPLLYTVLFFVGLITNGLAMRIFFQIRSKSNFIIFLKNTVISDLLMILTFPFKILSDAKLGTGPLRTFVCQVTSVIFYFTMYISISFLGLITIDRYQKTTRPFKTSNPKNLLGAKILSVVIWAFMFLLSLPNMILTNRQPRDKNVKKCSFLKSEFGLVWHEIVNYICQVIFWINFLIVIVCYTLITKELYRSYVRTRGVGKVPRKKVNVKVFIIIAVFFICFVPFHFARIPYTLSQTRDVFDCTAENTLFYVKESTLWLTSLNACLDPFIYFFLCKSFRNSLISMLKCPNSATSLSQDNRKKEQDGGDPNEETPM
# Selected compounds were investigated for their functionality in GTP shift experiments. Radioligand binding studies as described above were performed in the presence and absence of GTP (100 μM).
# mouse P2Y2 receptor = mouse P2Y2 receptor (Mus musculus, UniProt P35383); assay: Inhibition of agonist-induced calcium mobilization in NG108-15 cells; format: cell-based; settings: mean ± SEM, read-out: mP2Y2 Receptor IC50 (μM ± SEM)
# Method: as §3, §2
# hP2Y2 Receptor = target: T3, hP2Y2 Receptor (Homo sapiens, UniProt P41231); assay: Inhibition of agonist-induced calcium mobilization, recombinant receptor in human astrocytoma cells; format: cell-based; settings: mean ± SEM
# T3 construct: expressed in transfected cells; host or cells: human astrocytoma cells
# Method: as §3, §2
# P2Y12 [3] = target: T2, P2Y12; settings: recent review article (Abbracchio et al. 2006); read-out: Ki value as P2Y12 antagonist; cited from earlier work
# Target sequence in this assay (Q9H244 whole entry, species assumed): as the sequence (Q9H244 whole entry) above
# Sequence of rP2Y6 Receptor (Q63371 whole entry): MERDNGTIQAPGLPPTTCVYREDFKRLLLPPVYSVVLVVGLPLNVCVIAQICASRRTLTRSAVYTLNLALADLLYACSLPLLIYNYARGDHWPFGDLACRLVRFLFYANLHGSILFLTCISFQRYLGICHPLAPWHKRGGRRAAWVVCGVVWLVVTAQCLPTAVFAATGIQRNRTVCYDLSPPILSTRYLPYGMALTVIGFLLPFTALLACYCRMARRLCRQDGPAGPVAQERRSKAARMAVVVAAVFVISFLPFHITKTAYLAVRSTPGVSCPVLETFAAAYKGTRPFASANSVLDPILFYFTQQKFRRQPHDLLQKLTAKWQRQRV
# Sequence of mouse P2Y2 receptor (P35383 whole entry): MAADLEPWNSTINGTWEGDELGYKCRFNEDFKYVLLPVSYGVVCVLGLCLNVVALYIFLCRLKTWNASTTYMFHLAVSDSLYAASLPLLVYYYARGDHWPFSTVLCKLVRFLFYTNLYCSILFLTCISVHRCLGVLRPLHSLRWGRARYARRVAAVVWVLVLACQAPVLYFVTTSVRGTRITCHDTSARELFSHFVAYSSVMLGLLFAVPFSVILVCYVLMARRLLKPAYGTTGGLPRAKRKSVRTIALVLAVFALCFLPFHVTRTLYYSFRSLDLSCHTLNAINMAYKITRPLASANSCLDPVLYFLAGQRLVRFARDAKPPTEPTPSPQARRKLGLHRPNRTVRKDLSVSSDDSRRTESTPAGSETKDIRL
# T3 sequence (P41231 whole entry): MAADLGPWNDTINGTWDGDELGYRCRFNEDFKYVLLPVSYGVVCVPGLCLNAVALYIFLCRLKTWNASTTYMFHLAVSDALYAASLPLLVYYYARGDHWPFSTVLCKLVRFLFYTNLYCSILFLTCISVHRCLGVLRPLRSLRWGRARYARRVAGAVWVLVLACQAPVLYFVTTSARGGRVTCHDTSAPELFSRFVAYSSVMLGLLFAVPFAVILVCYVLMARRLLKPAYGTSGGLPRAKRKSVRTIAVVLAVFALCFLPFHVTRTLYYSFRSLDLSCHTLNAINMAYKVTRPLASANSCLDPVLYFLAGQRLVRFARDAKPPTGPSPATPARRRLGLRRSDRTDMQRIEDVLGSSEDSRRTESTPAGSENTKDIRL
# T1 sequence (Q9H244 whole entry): as the sequence (Q9H244 whole entry) above
# Sequence of hP2Y4 Receptor (P51582 whole entry): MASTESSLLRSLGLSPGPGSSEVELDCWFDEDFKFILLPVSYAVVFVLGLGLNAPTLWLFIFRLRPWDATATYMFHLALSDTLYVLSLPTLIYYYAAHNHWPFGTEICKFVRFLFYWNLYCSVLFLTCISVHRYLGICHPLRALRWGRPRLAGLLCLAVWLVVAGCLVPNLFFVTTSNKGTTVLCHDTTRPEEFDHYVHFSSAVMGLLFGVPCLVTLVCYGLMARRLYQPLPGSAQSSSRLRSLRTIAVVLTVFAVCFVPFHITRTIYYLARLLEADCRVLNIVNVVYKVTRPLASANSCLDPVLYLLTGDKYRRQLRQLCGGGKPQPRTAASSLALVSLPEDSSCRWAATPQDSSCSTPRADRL
Compound,Ki [1],IC50 (hP2Y4 Receptor),IC50 (rP2Y6 Receptor),right-shift of the concentration-inhibition curve in GTP shift experiments (P2Y12 [2]),IC50 (mouse P2Y2 receptor),IC50 (hP2Y2 Receptor),Ki (P2Y12 [3])
Nc1c(S(=O)(=O)[O-])cc(Nc2ccc(Nc3ncccn3)c(S(=O)(=O)[O-])c2)c2c1C(=O)c1ccccc1C2=O.[Na+].[Na+] [Entry 33],0.0507 ± 0.016 µM,9.04 ± 1.2 µM,28.6 ± 2.7 µM,did not,,,
Nc1c(S(=O)(=O)O)cc(Nc2ccc(Nc3ccccc3)cc2)c2c1C(=O)c1ccccc1C2=O [Entry 18],1.85 ± 0.57 µM,> 3 µM,> 1 µM,,30 ± 7 µM,,
"Nc1ncnc2c1ncn2[C@@H]1O[C@H](COP(=O)(O)OP(=O)(O)O)[C@@H](O)[C@H]1O [ADP, reference compound]",,,,significant right-shift,,,
Nc1c(S(=O)(=O)O)cc(Nc2ccccc2)c2c1C(=O)c1ccccc1C2=O [Entry 17],9.83 ± 2.43 µM,,,,11.1 ± 3 µM,5.61 ± 0.47 µM,
Nc1c(S(=O)(=O)O)cc(Nc2ccc(Cl)cc2)c2c1C(=O)c1ccccc1C2=O [Entry 15],7.35 ± 1.72 µM,> 3 µM,> 10 µM,,20 ± 7 µM,4.46 ± 0.75 µM,
"Nc1c(S(=O)(=O)O)cc(Nc2ccc(Nc3nc(Cl)nc(Nc4cccc(S(=O)(=O)O)c4)n3)c(S(=O)(=O)O)c2)c2c1C(=O)c1ccccc1C2=O [Reactive Blue 2, reference compound]",,,,did not,,,1300 nM
COc1nc(Cl)nc(Nc2ccc(Nc3cc(S(=O)(=O)[O-])c(N)c4c3C(=O)c3ccccc3C4=O)cc2S(=O)(=O)[O-])n1.[Na+].[Na+] [Entry 37],0.66 ± 0.12 µM,,,did not,,,
Nc1c(S(=O)(=O)O)cc(Nc2cccc3ccccc23)c2c1C(=O)c1ccccc1C2=O [Entry 25],,10.1 ± 1.4 µM,26.7 µM,,10.7 ± 1 µM,6.67 ± 0.32 µM,
